Laboratory results: ChEMBL document CHEMBL4837240 (J Med Chem, 2021)
Active and inactive are the calls of the source. The calls are words filed in the database; no cut-off is given here.

Legend:
MDA-MB-436 [1] = experiment: Induction of apoptosis in human MDA-MB-436 cells assessed as cleaved caspase 3 up to 10 uM incubated for 24 hrs by Western blotting analysis; assay type: functional, cell-based; conditions: dose microM <=10, time 24.0 hrs
Misshapen-like kinase 1 [2] = molecular target: T1, Misshapen-like kinase 1 (Homo sapiens, UniProt Q8N4C8); experiment: Inhibition of human MINK
Target sequence in this assay (Q8N4C8 whole entry): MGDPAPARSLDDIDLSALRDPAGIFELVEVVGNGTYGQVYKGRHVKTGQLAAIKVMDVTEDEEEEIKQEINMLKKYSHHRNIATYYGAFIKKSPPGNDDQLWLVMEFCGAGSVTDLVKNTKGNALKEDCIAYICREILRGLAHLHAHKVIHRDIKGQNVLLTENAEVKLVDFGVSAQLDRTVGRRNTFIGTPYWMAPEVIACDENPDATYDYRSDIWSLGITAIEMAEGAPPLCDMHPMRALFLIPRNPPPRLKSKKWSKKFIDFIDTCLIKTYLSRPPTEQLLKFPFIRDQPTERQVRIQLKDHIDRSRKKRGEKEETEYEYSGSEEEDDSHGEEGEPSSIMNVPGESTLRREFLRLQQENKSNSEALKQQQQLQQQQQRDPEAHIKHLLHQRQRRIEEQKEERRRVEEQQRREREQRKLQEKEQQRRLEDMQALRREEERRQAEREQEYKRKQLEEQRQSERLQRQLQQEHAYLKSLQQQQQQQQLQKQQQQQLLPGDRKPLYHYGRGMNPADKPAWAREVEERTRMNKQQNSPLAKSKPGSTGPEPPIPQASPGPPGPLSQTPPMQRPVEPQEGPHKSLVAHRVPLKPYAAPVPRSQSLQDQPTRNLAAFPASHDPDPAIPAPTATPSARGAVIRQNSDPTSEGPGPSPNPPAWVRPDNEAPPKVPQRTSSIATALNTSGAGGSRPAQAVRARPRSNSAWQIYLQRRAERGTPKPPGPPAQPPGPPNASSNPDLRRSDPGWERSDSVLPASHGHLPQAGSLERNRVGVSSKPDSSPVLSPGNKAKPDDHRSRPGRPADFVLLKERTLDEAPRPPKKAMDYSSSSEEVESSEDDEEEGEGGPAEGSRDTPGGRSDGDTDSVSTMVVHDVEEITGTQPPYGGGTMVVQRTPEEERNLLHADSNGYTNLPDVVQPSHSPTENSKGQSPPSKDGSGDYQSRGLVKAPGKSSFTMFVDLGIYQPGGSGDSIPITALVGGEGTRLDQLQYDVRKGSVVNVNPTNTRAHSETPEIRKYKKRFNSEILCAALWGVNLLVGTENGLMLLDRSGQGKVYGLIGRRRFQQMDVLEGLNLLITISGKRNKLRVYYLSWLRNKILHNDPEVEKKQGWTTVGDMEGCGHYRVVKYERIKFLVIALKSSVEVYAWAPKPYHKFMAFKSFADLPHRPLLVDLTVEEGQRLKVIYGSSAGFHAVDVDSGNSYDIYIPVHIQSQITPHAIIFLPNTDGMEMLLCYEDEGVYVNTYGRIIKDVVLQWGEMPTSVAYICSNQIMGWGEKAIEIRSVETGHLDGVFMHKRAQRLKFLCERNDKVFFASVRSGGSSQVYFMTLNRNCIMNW

[3] = molecular target: T2, Vascular endothelial growth factor receptor 3 (Homo sapiens, UniProt P35916); experiment: Inhibition of VEGFR3 in human MDA-MB-231 cells assessed as inhibition of STAT5 phosphorylation at 2.5 uM incubated for 24 hrs by Western blot analysis; assay type: cell-based
T2 sequence (P35916 whole entry): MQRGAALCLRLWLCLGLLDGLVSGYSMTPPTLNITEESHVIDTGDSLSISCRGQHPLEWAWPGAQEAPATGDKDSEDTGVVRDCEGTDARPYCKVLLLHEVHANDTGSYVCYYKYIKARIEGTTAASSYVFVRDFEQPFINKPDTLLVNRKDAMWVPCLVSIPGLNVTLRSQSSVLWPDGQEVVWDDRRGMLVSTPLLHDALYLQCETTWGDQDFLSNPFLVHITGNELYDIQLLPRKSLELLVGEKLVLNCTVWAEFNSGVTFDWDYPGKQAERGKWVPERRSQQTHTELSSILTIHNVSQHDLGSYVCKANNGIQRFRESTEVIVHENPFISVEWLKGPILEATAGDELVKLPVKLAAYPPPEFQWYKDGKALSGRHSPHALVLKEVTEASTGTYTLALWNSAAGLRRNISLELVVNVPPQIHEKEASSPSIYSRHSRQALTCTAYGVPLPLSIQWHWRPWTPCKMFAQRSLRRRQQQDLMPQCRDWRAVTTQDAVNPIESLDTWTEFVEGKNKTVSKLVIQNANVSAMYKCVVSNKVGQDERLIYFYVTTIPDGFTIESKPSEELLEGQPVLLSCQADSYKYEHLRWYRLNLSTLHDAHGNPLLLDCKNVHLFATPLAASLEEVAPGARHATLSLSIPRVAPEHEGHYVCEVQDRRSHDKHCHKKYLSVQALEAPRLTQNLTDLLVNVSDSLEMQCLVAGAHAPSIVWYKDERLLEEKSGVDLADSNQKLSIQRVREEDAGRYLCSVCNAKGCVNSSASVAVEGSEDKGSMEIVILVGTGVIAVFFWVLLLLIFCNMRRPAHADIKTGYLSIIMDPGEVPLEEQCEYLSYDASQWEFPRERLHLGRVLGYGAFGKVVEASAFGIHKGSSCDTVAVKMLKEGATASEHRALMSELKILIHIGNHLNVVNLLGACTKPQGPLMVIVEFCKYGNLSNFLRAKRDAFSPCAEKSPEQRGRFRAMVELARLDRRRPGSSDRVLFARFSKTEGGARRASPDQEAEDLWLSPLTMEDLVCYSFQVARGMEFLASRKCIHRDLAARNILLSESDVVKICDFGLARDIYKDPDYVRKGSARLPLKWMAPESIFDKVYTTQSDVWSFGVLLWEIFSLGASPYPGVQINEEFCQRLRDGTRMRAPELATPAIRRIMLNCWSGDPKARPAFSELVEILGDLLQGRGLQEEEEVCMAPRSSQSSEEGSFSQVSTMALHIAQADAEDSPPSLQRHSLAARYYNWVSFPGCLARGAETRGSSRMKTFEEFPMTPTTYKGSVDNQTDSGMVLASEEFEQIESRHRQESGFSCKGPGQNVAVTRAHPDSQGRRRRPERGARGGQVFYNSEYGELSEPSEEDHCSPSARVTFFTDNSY

[4] = molecular target: Vascular endothelial growth factor receptor 1 (Homo sapiens, UniProt P17948); experiment: Inhibition of human FLT1/VEGFR1
[5] = molecular target: T2, Vascular endothelial growth factor receptor 3; experiment: Inhibition of VEGFR3 in human dermal lymphatic endothelial cells assessed as inhibition of AKT phosphorylation incubated for 24 hrs by Western blot analysis; assay type: tissue-based; conditions: HDLEC
[6] = molecular target: T2, Vascular endothelial growth factor receptor 3; experiment: Inhibition of VEGFR3 in human MDA-MB-231 cells assessed as inhibition of ERK1/2 phosphorylation at 2.5 uM incubated for 24 hrs by Western blot analysis; assay type: cell-based
MDA-MB-231 [7] = experiment: Induction of apoptosis in human MDA-MB-231 cells assessed as accumulation at G1 phase incubated for 48 hrs by flow cytometry; assay type: functional, cell-based
[8] = molecular target: Vascular endothelial growth factor receptor 3 (Mus musculus) (UniProt P35917); experiment: In vivo inhibition of VEGFR3 phosphorylation in BALB/c mouse xenografted with MDA-MB-231 cells assessed as decrease in AKT phosphorylation at 25 mg/kg, po by immunohistochemistry analysis; assay type: functional, organism-based
Vascular endothelial growth factor receptor 3 (Mus musculus), sequence (P35917 whole entry): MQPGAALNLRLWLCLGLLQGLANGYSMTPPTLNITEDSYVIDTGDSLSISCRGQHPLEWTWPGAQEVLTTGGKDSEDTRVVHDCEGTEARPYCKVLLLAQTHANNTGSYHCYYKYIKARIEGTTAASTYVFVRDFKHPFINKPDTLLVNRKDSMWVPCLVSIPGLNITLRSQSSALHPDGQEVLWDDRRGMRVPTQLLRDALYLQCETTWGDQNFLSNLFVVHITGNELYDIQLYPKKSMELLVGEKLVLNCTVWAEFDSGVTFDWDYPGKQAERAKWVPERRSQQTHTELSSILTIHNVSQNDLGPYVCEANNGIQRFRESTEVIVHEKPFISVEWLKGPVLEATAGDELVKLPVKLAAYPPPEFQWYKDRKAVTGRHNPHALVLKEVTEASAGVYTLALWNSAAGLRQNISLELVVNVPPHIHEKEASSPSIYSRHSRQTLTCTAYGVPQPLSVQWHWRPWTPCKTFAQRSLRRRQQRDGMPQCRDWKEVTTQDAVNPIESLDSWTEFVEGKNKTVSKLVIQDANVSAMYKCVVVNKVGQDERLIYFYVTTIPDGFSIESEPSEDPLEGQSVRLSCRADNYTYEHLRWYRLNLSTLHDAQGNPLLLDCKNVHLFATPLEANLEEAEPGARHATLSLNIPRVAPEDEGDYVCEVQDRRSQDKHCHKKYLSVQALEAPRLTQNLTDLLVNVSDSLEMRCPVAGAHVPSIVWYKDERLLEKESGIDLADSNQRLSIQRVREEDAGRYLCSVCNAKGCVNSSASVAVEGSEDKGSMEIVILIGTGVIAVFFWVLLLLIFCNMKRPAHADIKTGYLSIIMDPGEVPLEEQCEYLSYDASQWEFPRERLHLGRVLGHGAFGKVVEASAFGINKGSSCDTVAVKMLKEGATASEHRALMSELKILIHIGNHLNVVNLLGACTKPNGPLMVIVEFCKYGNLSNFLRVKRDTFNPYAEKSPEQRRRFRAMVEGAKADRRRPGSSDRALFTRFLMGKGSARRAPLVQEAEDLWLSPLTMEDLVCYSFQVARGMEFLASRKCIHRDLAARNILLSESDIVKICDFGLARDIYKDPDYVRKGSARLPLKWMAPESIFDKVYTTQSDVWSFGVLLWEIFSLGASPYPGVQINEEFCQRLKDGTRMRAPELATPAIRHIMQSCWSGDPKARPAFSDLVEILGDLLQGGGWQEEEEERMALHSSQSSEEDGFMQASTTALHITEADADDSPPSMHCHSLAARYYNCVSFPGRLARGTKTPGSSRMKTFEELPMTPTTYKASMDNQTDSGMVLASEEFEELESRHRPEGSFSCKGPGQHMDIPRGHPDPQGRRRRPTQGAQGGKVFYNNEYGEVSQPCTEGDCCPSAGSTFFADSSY

[9] = molecular target: T2, Vascular endothelial growth factor receptor 3; experiment: Inhibition of VEGFR3 phosphorylation in human MDA-MB-436 cells at 2.5 uM incubated for 24 hrs by Western blot analysis; assay type: cell-based
MDA-MB-436 [10] = experiment: Induction of apoptosis in human MDA-MB-436 cells assessed as upregulation of caspase 3 up to 10 uM incubated for 24 hrs by Western blotting analysis; assay type: functional, cell-based; conditions: dose microM <=10, time 24.0 hrs
MDA-MB-231 [11] = experiment: Induction of apoptosis in human MDA-MB-231 cells assessed as upregulation of caspase 3 up to 10 uM incubated for 24 hrs by Western blotting analysis; assay type: functional, cell-based; conditions: dose microM <=10, time 24.0 hrs
[12] = Antiproliferative activity against VEGF-D-induced human dermal lymphatic endothelial cells assessed as cell viability incubated for 48 hrs by CCK-8 assay; assay type: functional, tissue-based; conditions: HDLEC
[13] = Toxicity in BALB/c mouse xenografted with MDA-MB-231 cells assessed as change in heart at 300 mg/kg, po by hematoxylin and eosin staining based analysis; assay type: organism-based; conditions: in vivo
MDA-MB-231 [14] = experiment: Upregulation of E-cadherin protein expression in human MDA-MB-231 cells up to 10 uM incubated for 24 hrs by Western blot analysis; assay type: functional, cell-based; conditions: dose microM <=10, time 24.0 hrs
MDA-MB-436 [15] = experiment: Induction of apoptosis in human MDA-MB-436 cells assessed as downregulation of Bcl2 expression up to 10 uM incubated for 24 hrs by Western blotting analysis; assay type: functional, cell-based; conditions: dose microM <=10, time 24.0 hrs
MDA-MB-436 [16] = experiment: Inhibition of colony formation in human MDA-MB-436 cells at 2.5 uM incubated for 24 hrs by clonogenic assay; assay type: functional
Mus musculus [17] = experiment: Decrease in MMP-2 level in BALB/c mouse xenografted with MDA-MB-231 cells in tumor tissue at 25 mg/kg, po by immunohistochemistry analysis; assay type: functional, organism-based
Mus musculus [18] = experiment: Downregulation of MMP2 protein expression human MDA-MB-231 cells injected into vein of BALB/c mouse lung metastatic model at 50 mg/kg, po once a day measured on day 21 by […]; assay type: functional, organism-based
[19] = molecular target: T2, Vascular endothelial growth factor receptor 3; experiment: Inhibition of VEGFR3 in human dermal lymphatic endothelial cells assessed as inhibition of ERK1/2 phosphorylation incubated for 24 hrs by Western blot analysis; conditions: HDLEC
Mus musculus [20] = experiment: Decrease in p-VEGFR3 level in BALB/c mouse xenografted with MDA-MB-231 cells in tumor tissue at 25 mg/kg, po by immunohistochemistry analysis; assay type: functional, organism-based
[21] = molecular target: Vascular endothelial growth factor receptor 2 (Homo sapiens, UniProt P35968); experiment: Inhibition of human KDR/VEGFR2 assessed as residual kinase activity at 1 uM relative to control
MDA-MB-436 [22] = experiment: Induction of apoptosis in human MDA-MB-436 cells assessed as accumulation at G1 phase incubated for 48 hrs by flow cytometry; assay type: functional, cell-based
[23] = Toxicity in po dosed BALB/c mouse xenografted with MDA-MB-231 cells assessed as maximum tolerated dose; assay type: organism-based; conditions: in vivo
[24] = molecular target: T3, Maternal embryonic leucine zipper kinase (Homo sapiens, UniProt Q14680); experiment: Inhibition of human MELK
HDLEC [25] = experiment: Upregulation of E-cadherin protein expression in human dermal lymphatic endothelial cells incubated for 24 hrs by Western blot analysis; assay type: functional
[26] = Toxicity in BALB/c mouse xenografted with MDA-MB-231 cells assessed as change in kidney at 300 mg/kg, po by hematoxylin and eosin staining based analysis; assay type: organism-based; conditions: in vivo
[27] = molecular target: Vascular endothelial growth factor receptor 3 (Mus musculus) (UniProt P35917); experiment: In vivo inhibition of VEGFR3 phosphorylation in BALB/c mouse xenografted with MDA-MB-231 cells at 25 mg/kg, po by immunohistochemistry analysis; assay type: functional, organism-based
Mus musculus [28] = experiment: Decrease in LYVE-1 level in BALB/c mouse xenografted with MDA-MB-231 cells in tumor tissue at 25 mg/kg, po by immunohistochemistry analysis; assay type: functional, organism-based
[29] = molecular target: T3, Maternal embryonic leucine zipper kinase; experiment: Inhibition of human MELK assessed as residual kinase activity at 1 uM relative to control
[30] = molecular target: Tyrosine-protein kinase BTK (Homo sapiens, UniProt Q06187); experiment: Inhibition of human BTK assessed as residual kinase activity at 1 uM relative to control
Tyrosine-protein kinase BTK, sequence (Q06187 whole entry): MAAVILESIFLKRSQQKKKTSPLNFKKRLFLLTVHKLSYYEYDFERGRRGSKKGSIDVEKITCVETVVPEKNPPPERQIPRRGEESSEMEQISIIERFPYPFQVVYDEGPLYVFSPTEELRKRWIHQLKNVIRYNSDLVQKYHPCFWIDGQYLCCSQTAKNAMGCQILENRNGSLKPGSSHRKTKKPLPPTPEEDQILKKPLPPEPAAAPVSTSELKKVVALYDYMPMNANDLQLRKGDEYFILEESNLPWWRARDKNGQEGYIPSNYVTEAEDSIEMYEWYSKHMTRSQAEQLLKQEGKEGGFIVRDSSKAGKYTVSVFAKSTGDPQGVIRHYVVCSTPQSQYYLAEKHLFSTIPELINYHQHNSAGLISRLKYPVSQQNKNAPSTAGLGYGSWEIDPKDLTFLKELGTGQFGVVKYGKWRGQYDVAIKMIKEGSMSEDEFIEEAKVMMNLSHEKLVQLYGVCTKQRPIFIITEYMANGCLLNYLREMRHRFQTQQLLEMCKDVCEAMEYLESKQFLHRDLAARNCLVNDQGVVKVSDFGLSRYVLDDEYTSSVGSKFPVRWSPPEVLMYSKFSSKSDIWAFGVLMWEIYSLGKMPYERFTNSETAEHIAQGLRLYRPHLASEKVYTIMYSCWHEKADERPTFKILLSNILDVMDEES

HDLEC [31] = experiment: Downregulation of MMP2 protein expression in human dermal lymphatic endothelial cells incubated for 24 hrs by Western blot analysis; assay type: functional, tissue-based
[32] = molecular target: T2, Vascular endothelial growth factor receptor 3; experiment: Inhibition of VEGFR3 in human MDA-MB-231 cells assessed as inhibition of AKT phosphorylation at 2.5 uM incubated for 24 hrs by Western blot analysis; assay type: cell-based
[33] = Antiproliferative activity against VEGF-C-induced human dermal lymphatic endothelial cells assessed as cell viability incubated for 48 hrs by CCK-8 assay; assay type: functional, tissue-based; conditions: HDLEC
[34] = Cmax in Sprague-Dawley rat at 1 mg/kg, iv by LC-MS analysis; assay type: ADME, organism-based; parameters: route intravenous, dose 1 mg/kg; conditions: in vivo
Misshapen-like kinase 1 [35] = molecular target: T1, Misshapen-like kinase 1; experiment: Inhibition of human MINK assessed as residual kinase activity at 1 uM relative to control
Target sequence in this assay (Q8N4C8 whole entry, looked up): as the sequence (Q8N4C8 whole entry) above

[36] = Toxicity in BALB/c mouse xenografted with MDA-MB-231 cells assessed as effect on body weight at 50 mg/kg, po; assay type: organism-based; conditions: in vivo
MDA-MB-436 [37] = experiment: Downregulation of MMP2 protein expression in human MDA-MB-436 cells up to 10 uM incubated for 24 hrs by Western blot analysis; assay type: functional, cell-based; conditions: dose microM <=10, time 24.0 hrs
MDA-MB-231 [38] = experiment: Antimigratory activity against human MDA-MB-231 cells assessed as reduction in cell migration incubated for 12 hrs by transwell assay; assay type: functional, cell-based
[39] = molecular target: T2, Vascular endothelial growth factor receptor 3; experiment: Inhibition of human FLT4/VEGFR3 assessed as residual kinase activity at 1 uM relative to control
MDA-MB-231 [40] = experiment: Induction of apoptosis in human MDA-MB-231 cells assessed as upregulation of Bax expression up to 10 uM incubated for 24 hrs by Western blotting analysis; assay type: functional, cell-based; conditions: dose microM <=10, time 24.0 hrs
[41] = Toxicity in BALB/c mouse xenografted with MDA-MB-231 cells assessed as creatinine level in blood at 300 mg/kg, po; assay type: organism-based; conditions: in vivo

## CN1CCN(c2ccc(-c3cc4c(N5CCN(C(=O)Nc6ccc(Cl)c(C(F)(F)F)c6)CC5)ncnc4s3)cc2)CC1
MDA-MB-436 [1]
  Activity: Active
Misshapen-like kinase 1 [2]
  IC50: 335 nM
[3]
  inhibition: Active
[4]
  IC50: > 10000 nM
[5]
  inhibition: Dose-Dependent Effect
[6]
  inhibition: Active
MDA-MB-231 [7]
  Activity: Dose-Dependent Effect
[8]
  Activity: Active
[9]
  inhibition: Active
MDA-MB-436 [10]
  Activity: Active
MDA-MB-231 [11]
  Activity: Active
[12]
  IC50: 680 nM
[13]
  Activity: Non-Toxic
MDA-MB-231 [14]
  Activity: Active
MDA-MB-436 [15]
  Activity: Active
MDA-MB-436 [16]
  inhibition at 2.5 µM: 100%
Mus musculus [17]
  Activity: Active
Mus musculus [18]
  Activity: Active
[19]
  inhibition: Dose-Dependent Effect
Mus musculus [20]
  Activity: Active
[21]
  Activity: 85%
MDA-MB-436 [22]
  Activity: Dose-Dependent Effect
[23]
  MTD: 300 mg/kg
[24]
  IC50: 700 nM
HDLEC [25]
  Activity: Active
[26]
  Activity: Non-Toxic
[27]
  Activity: Active
Mus musculus [28]
  Activity: Active
[29]
  Activity: 17%
[30]
  Activity: 19%
HDLEC [31]
  Activity: Active
[32]
  inhibition: Active
[33]
  IC50: 250 nM
[34]
  Cmax: 420 ng/mL
Misshapen-like kinase 1 [35]
  Activity: 5%
[36]
  Activity: Non-Toxic
MDA-MB-436 [37]
  Activity: Active
MDA-MB-231 [38]
  Activity: Active
[39]
  Activity: 0%
MDA-MB-231 [40]
  Activity: Active
[41]
  Activity: Non-Toxic
